In PMC12238850, “Molecular determinants for recognition of serotonylated chromatin” (Nucleic Acids Research, 2025):
Changes are numbered by the printed parent chain. Like-named read-outs stand apart in the source and are kept apart here.

How the values were obtained:
[1] = target: T1, Taf3-PHD (residues 857–924) (Mus musculus, UniProt Q5HZG4); assay: NMR titration line shape analysis (TITAN), wild-type Taf3-PHD; format: binding
T1 construct: PHD finger of Taf3 (residues 857–924) in NMR buffer; GST (N, cleaved yes); made in house; host or cells: E. coli BL21(DE3), M9 minimal medium (13C/15N)
T1 sequence (Q5HZG4 857-924): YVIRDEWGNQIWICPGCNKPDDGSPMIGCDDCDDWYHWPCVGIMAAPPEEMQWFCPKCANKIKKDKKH
Experimental: (§1) The ^13C- and ^15N-labelled Taf3-PHD NMR samples were purified as described above, with minor differences. A single colony of freshly transformed BL21(DE3) E. coli was grown in a synthetic M9 minimal medium (6.0 g/l Na2HPO4·2H2O, 3.0 g/l KH2PO4, 0.5 g/l NaCl, 25 mg/l MgSO4, 290 μg/l CaCl2, 1 μg/l FeSO4·7H2O, 270 μg/l ZnCl2, and 5 mg/l thiamine) containing 2.0 g/l ^13C-glucose as the only carbon source and 0.5 g/l ^15NH4Cl as the sole nitrogen source. Protein expression, lysis, and loading to Glutathione Sepharose™ column were performed as described above. The GST-tag was removed through on-column thrombin digestion by loading excess thrombin (SERVA) in wash buffer followed by overnight digestion at 4°C. The cleaved PHD moiety with a […] N-terminal extension (Gly–Ser–His–Met–Ala–Met–Ala) remaining from the thrombin cleavage site was collected from the flow-through and further purified in a Mono Q™ 10/100 GL as before and subsequently loaded to a Superdex-75 HiLoad 16/600 gel filtration column in NMR buffer (20 mM KPi, pH 7.0, 150 mM KCl, 10 μM ZnCl2) (Supplementary Fig. S1).
(§2) All data were recorded at 298 K on a Bruker Avance III HD 900 MHz spectrometer equipped with a cryoprobe, unless noted otherwise. Sample for assignment verification contained 0.3 mM ^13C- and ^15N-labelled PHD finger of Taf3 (residues 857–924) in NMR buffer (20 mM KPi, pH 7.0, 150 mM KCl, 10 μM ZnCl2, 0.01% NaN3, 10% D2O) in a 5-mm NMR tube. Samples for peptide interaction studies contained 0.19 mM ^13C- and ^15N-labelled PHD in NMR buffer in 3-mm NMR tubes. Lyophilized peptides were dissolved in NMR buffer including 1 mM sodium 3-(trimethylsilyl)tetradeuteriopropanionate (TSP) into 20 mM stock solutions. Upon dilution to 1 mM, all peptide solutions were at pH 7.0 in NMR buffer. Peptide concentrations were determined by comparing the integral of the Thr methyl signal (from T3, T6, and T11, total nine protons) to that of TSP using a quantitative 1D experiment (recycle delay 60 s) recorded at a Bruker Avance III 600 MHz spectrometer. Saturated complexes with H3K4me1/H3K4me2/H3K4me3 peptides with and without H3Q5ser were made by adding peptide to a 0.7 mM final concentration (3.6 equiv.). […] Additional samples were prepared using 30%, 50%, 80%, and 160% equiv. of peptide. All spectra were recorded and processed using Bruker Topspin and analysed using NMR-FAM Sparky and Poky.
For the H3K4me2 complexes, the resonance of G879 was excluded due to overlap and that of K875 was included. Spectra were processed using NMRPipe using exponential line broadening of 10/15 Hz in the direct/indirect dimension of the free induction decay before Fourier transform. Data were fit against a 1:1 binding model that also optimizes the ligand concentration to compensate for concentration errors. Fitting assumed an HSQC experiment using 1.2 ms for the first zz-filter delays and an additional 0.6 ms evolution at the start and end of t1 that accommodated the echo/anti-echo gradient. The average koff value and standard error from a bootstrap analysis based on 100 replicas are reported. The 95% confidence limits were estimated using a grid search fixing koff allowing for an ∼3% increase in the final residuals as based on the F-statistic given the degrees of freedom. For each koff value, the KD for the H3K4me3 peptide was restrained to fall within 100 and 400 nM to enforce compatibility to previous reported affinity to avoid unrealistically high fitted KD values at higher koff values. Of note, the quality of the fit at the confidence limit edges is visibly worse than the best fit, particularly for the high koff side. For the H3K4me3Q5ser peptide, no restraint on KD was necessary. For the H3K4me2 peptides, the KD was restrained to 5 μM maximum. Without these upper bounds for KD, slightly wider confidence limits for koff are found.

Taf3-PHD P881E–W894F = target: T2, Taf3-PHD P881E–W894F (Mus musculus, UniProt Q5HZG4, P881E/W894F); assay: NMR titration line shape analysis (TITAN), double mutant Taf3-PHD; format: binding
T2 construct: Mus musculus Taf3-PHD domain (residues 857–924); GST (N, cleaved yes); made in house; host or cells: E. coli BL21(DE3), M9 minimal medium (13C/15N)
T2 sequence (Q5HZG4 857-924 P881E/W894F): T1 sequence (Q5HZG4 857-924) with P25E, W38F
Experimental: as §1, §2
For the H3K4me2 complexes, the resonance of G879 was excluded due to overlap and that of K875 was included. Spectra were processed using NMRPipe using exponential line broadening of 10/15 Hz in the direct/indirect dimension of the free induction decay before Fourier transform. Data were fit against a 1:1 binding model that also optimizes the ligand concentration to compensate for concentration errors. […]

SMILES	koff ([1]; NMR line shape fit (TITAN), 298 K, 20 mM KPi, pH 7.0, 150 mM KCl, 1:1 model, average ± standard error from bootstrap, 100 replicas, read-out: koff) [s⁻¹]	koff ([1]; NMR line shape fit (TITAN), 298 K, pH 7.0, grid search, read-out: koff 95% confidence limits) [s⁻¹]	koff (Taf3-PHD P881E–W894F; NMR line shape fit (TITAN), P881E–W894F mutant, average ± standard error from bootstrap, read-out: koff) [s⁻¹]	koff (Taf3-PHD P881E–W894F; NMR line shape fit (TITAN), P881E–W894F mutant, read-out: koff 95% confidence limits) [s⁻¹]	koff ([1]; pH 7) [s⁻¹]	koff ([1]; pH 7, read-out: koff 95% confidence limits) [s⁻¹]	koff (Taf3-PHD P881E–W894F) [s⁻¹]	koff (Taf3-PHD P881E–W894F; read-out: koff 95% confidence limits) [s⁻¹]
C[C@H](N)C(=O)N[C@@H](CCCNC(=N)N)C(=O)N[C@H](C(=O)N[C@@H](CCCC[N+](C)(C)C)C(=O)N[C@@H](CCC(N)=O)C(=O)N[C@H](C(=O)N[C@@H](C)C(=O)N[C@@H](CCCNC(=N)N)C(=O)N[C@@H](CCCCN)C(=O)N[C@@H](CO)C(=O)N[C@H](C(=O)NCC(N)=O)[C@@H](C)O)[C@@H](C)O)[C@@H](C)O [H3K4me3]	48.8 ± 1	42 to 56	29.6 ± 0.9	22 to 40	–	–	–	–
C[C@H](N)C(=O)N[C@@H](CCCNC(=N)N)C(=O)N[C@H](C(=O)N[C@@H](CCCC[N+](C)(C)C)C(=O)N[C@@H](CCC(=O)NCCc1c[nH]c2ccc(O)cc12)C(=O)N[C@H](C(=O)N[C@@H](C)C(=O)N[C@@H](CCCNC(=N)N)C(=O)N[C@@H](CCCCN)C(=O)N[C@@H](CO)C(=O)N[C@H](C(=O)NCC(N)=O)[C@@H](C)O)[C@@H](C)O)[C@@H](C)O [H3K4me3Q5ser]	–	–	–	–	16.8 ± 0.5	12 to 22	24.2 ± 0.9	18 to 33
